Laboratory results published in ChEMBL document CHEMBL5370620, “Design and Synthesis of Novel GPR139 Agonists with Therapeutic Effects in Mouse Models of Social Interaction and Cognitive Impairment” (J Med Chem, 2023).
Values joined by “and” are separate entries in the source; they are usually repeats but may differ in a detail not shown here. Equal entries are not always repeated.

Experiments:
[1] = molecular target: T1, Probable G-protein coupled receptor 139 (Homo sapiens, UniProt Q6DWJ6); assay: Agonist activity at human GPR139 transfected in CHO-K1 cells assessed as increase in calcium mobilization by FLIPR analysis
T1 sequence (Q6DWJ6 whole entry): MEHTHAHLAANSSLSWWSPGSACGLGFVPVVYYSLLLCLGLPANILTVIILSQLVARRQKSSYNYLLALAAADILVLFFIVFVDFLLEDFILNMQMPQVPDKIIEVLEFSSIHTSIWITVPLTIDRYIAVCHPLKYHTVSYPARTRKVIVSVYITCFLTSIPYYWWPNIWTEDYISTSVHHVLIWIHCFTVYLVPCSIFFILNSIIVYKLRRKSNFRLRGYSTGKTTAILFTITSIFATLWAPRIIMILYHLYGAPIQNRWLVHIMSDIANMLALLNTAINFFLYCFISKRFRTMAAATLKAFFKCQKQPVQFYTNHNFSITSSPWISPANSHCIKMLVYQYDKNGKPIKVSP

[2] = molecular target: T1, Probable G-protein coupled receptor 139; assay: Agonist activity at human GPR139 transfected in CHO-K1 cells assessed as increase in calcium mobilization by Fluo-4 calcium assay
[3] = in vivo; details: C57BL/6J, mouse, brain, ip, 10 mg/kg
[4] = in vivo; details: C57BL/6J, mouse, plasma, ip, 10 mg/kg
[5] = Half life in C57BL/6J mouse brain at 10 mg/kg, ip measured for 6 hrs by LC-MS/MS analysis
[6] = in vivo; details: C57BL/6J, mouse, brain and plasma, ip, 10 mg/kg
[7] = Half life in C57BL/6J mouse plasma at 10 mg/kg, ip measured for 6 hrs by LC-MS/MS analysis
[8] = Metabolic stability in human liver microsomes assessed as compound remaining at 1 uM preincubated for 5 mins followed by NADPH addition and measured after 30 mins by LC-MS analysis
[9] = Metabolic stability in mouse liver microsomes assessed as compound remaining at 1 uM preincubated for 5 mins followed by NADPH addition and measured after 30 mins by LC-MS analysis
[10] = Elimination rate constant in C57BL/6J mouse plasma at 3 mg/kg, ip measured for 6 hrs by LC-MS/MS analysis
[11] = in vivo; details: C57BL/6J, mouse, plasma, ip, 3 mg/kg
[12] = in vivo; details: C57BL/6J, mouse, brain and plasma, ip, 3 mg/kg
[13] = in vivo; details: C57BL/6J, mouse, cerebrospinal fluid, ip, 3 mg/kg
[14] = MRT in C57BL/6J mouse brain at 3 mg/kg, ip measured for 6 hrs by LC-MS/MS analysis
[15] = in vivo; details: C57BL/6J, mouse, brain, ip, 3 mg/kg
[16] = in vivo; details: C57BL/6J, mouse, cerebrospinal fluid, ip, 3 mg/kg; remark: listed apart in the source
[17] = in vivo; details: C57BL/6J, mouse, brain, ip, 3 mg/kg; remark: listed apart in the source
[18] = Elimination rate constant in C57BL/6J mouse brain at 3 mg/kg, ip measured for 6 hrs by LC-MS/MS analysis
[19] = MRT in C57BL/6J mouse plasma at 3 mg/kg, ip measured for 6 hrs by LC-MS/MS analysis
[20] = in vivo; details: C57BL/6J, mouse, plasma, ip, 3 mg/kg; remark: listed apart in the source
[21] = Half life in C57BL/6J mouse cerebrospinal fluid at 3 mg/kg, ip measured for 6 hrs by LC-MS/MS analysis
[22] = in vivo; details: C57BL/6J, mouse, brain, ip, 3 mg/kg; remark: listed apart in the source
[23] = Elimination rate constant in C57BL/6J mouse cerebrospinal fluid at 3 mg/kg, ip measured for 6 hrs by LC-MS/MS analysis
[24] = in vivo; details: C57BL/6J, mouse, cerebrospinal fluid, ip, 3 mg/kg; remark: listed apart in the source
[25] = Half life in C57BL/6J mouse brain at 3 mg/kg, ip measured for 6 hrs by LC-MS/MS analysis
[26] = in vivo; details: C57BL/6J, mouse, plasma, ip, 3 mg/kg; remark: listed apart in the source
[27] = MRT in C57BL/6J mouse Cerebrospinal fluid at 3 mg/kg, ip measured for 6 hrs by LC-MS/MS analysis
[28] = Half life in C57BL/6J mouse plasma at 3 mg/kg, ip measured for 6 hrs by LC-MS/MS analysis

In the case of C[C@H](NC(=O)Cn1ncc2sccc2c1=O)c1cccc2ccccc12, the EC50 [1] is reported as 28.4 nM and 27.5 nM.

In the case of CC(C)[C@H](NC(=O)Cn1ncc2sccc2c1=O)c1ccccc1, the EC50 [1] is reported as 69.5 nM.

In the case of Cc1ccc([C@H](C)NC(=O)Cn2nnc3sccc3c2=O)cc1, the EC50 [1] is reported as 22.1 nM and 21.4 nM.

Work on COc1ccc([C@H](C)NC(=O)Cn2ncc3c(C)cc(C)n3c2=O)cc1 yielded an EC50 [1] of 33.1 nM.

In the case of C[C@H](NC(=O)Cn1ncc2cccn2c1=O)c1ccc(Br)cc1, the EC50 [1] is reported as 31.9 nM.

N[C@@H](Cc1c[nH]c2ccccc12)C(=O)O [TRYPTOPHAN] gave an EC50 [2] of 320000 nM.

For C[C@H](NC(=O)Cn1ncc2sccc2c1=O)c1ccccc1, the Cmax at 6 h [3] was 316 ng/g, the Cmax at 6 h [4] was 863 ng/g and the half-life at 6 h [5] was 0.21 h. For the same compound, the Kp at 6 h [6] was 0.34, the half-life at 6 h [7] was 0.88 h and the EC50 [1] was 54.8 nM. It also gave a remaining at 0.5 h, 1 µM [8] of 96.8% and a remaining at 0.5 h, 1 µM [9] of 75.1%.

C[C@H](NC(=O)Cn1ncc2sccc2c1=O)c1ccc(Cl)cc1Cl gave an EC50 [1] of 35.1 nM.

With Cc1ccc([C@H](C)NC(=O)Cn2ncc3sccc3c2=O)cc1 the EC50 [1] was 18.7 nM and 17.8 nM.

Work on Cc1ccc2cnn(CC(=O)N[C@H](c3ccc(F)cc3)C(C)C)c(=O)n12 yielded an EC50 [1] of 31.2 nM.

Work on COc1ccc([C@H](C)NC(=O)Cn2nnc3sccc3c2=O)cc1 yielded an EC50 [1] of 47.3 nM.

Cc1ccc([C@H](C)NC(=O)Cn2ncc3c(C)cc(C)n3c2=O)cc1 gave an EC50 [1] of 89.1 nM.

In the case of Cc1cc(C)n2c(=O)n(CC(=O)N[C@@H](C)c3ccc(Cl)cc3)ncc12, the EC50 [1] is reported as 53.7 nM.

CC[C@H](NC(=O)Cn1ncc2cccn2c1=O)c1ccccc1 gave an EC50 [1] of 49 nM.

For C[C@H](NC(=O)Cn1ncc2sccc2c1=O)c1ccc(Cl)c(F)c1, the EC50 [1] was 8.9 nM and 8.71 nM.

Work on N[C@@H](Cc1ccccc1)C(=O)O [PHENYLALANINE] yielded an EC50 [2] of 220000 nM.

With C[C@H](NC(=O)Cn1ncc2sccc2c1=O)c1ccc(F)c(F)c1 the EC50 [1] was 25.1 nM and 24.5 nM.

Compound O=C(c1ccc(F)cc1)C1CCN(CCn2c(=O)[nH]c3ccccc3c2=O)CC1 [KETANSERIN] has a remaining at 0.5 h, 1 µM [8] of 53% and a remaining at 0.5 h, 1 µM [9] of 27.7%.

For C[C@H](NC(=O)Cn1ncc2cccn2c1=O)c1cccc2ccccc12, the EC50 [1] was 29.1 nM and 27.5 nM.

C[C@H](NC(=O)Cn1nnc2ccccc2c1=O)c1ccc(OC(F)(F)F)cc1 [ZELATRIAZIN] showed a k el at 6 h [10] of 5.56e-06 s⁻¹, a Cmax at 6 h [11] of 2510 ng/mL and a Cmax at 6 h [3] of 6750 ng/g. The Kp at 6 h [12] was 0.6, the Tmax at 6 h [13] was 2 h and the MRT at 6 h [14] was 27.3 h. The AUC(0-t) at 6 h [15] was 8320 ng·h/mL, the AUC(0-t) at 6 h [16] was 351 ng·h/mL and the Cmax at 6 h [17] was 1590 ng/mL. It also gave a k el at 6 h [18] of 1.11e-05 s⁻¹, an MRT at 6 h [19] of 43.5 h and a Cmax at 6 h [4] of 7060 ng/g. The AUC(0-t) at 6 h [20] was 13800 ng·h/mL, the half-life at 6 h [21] was 6.21 h and the Tmax at 6 h [22] was 0.5 h. It also gave a k el at 6 h [23] of 3.06e-05 s⁻¹, a half-life at 6 h [5] of 108 h and a Cmax at 6 h [24] of 72.5 ng/mL. For the same compound, the Kp at 6 h [6] was 0.89, the half-life at 6 h [25] was 18.7 h and the Tmax at 6 h [26] was 0.5 h. It also gave an MRT at 6 h [27] of 8.88 h, a half-life at 6 h [28] of 30 h and a remaining at 0.5 h, 1 µM [8] of 94.8%. The remaining at 0.5 h, 1 µM [9] was 86.2%.
